Reference: the supplement of paper PMC10307832

Key:
Assay in all cases: relative viability (nuclei count vs DMSO), 5 days (fraction); higher = more cells survive
NCI-H1355 = tested on: NCI-H1355
Procedure, shortened: (§1)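 Each reported value is a median over duplicate plates. It expresses relative viability: treated-well nuclei count divided by vehicle-well nuclei count. Lung cancer cell lines in 1536-well plates were dosed by pin tool a day after seeding, alone with one drug or with a fixed anchor-drug dose plus five library-drug doses (not always all listed) in √10 steps, and nuclei were counted after 5 days.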

NCI-H2170 = tested on: NCI-H2170
Procedure, shortened: as §1

NCI-H2009 = tested on: NCI-H2009
Procedure, shortened: as §1

NCI-H1734 = tested on: NCI-H1734
Procedure, shortened: as §1

LOU-NH91 = tested on: LOU-NH91
Procedure, shortened: as §1

NCI-H2405 = tested on: NCI-H2405
Procedure, shortened: as §1

NCI-H1395 = tested on: NCI-H1395
Procedure, shortened: as §1

NCI-H647 = tested on: NCI-H647
Procedure, shortened: as §1

HCC-827 = tested on: HCC-827
Procedure, shortened: as §1

BEN = tested on: BEN
Procedure, shortened: as §1

HCC-366 = tested on: HCC-366
Procedure, shortened: as §1

EKVX = tested on: EKVX
Procedure, shortened: as §1

NCI-H2342 = tested on: NCI-H2342
Procedure, shortened: as §1

HARA = tested on: HARA
Procedure, shortened: as §1

SK-MES-1 = tested on: SK-MES-1
Procedure, shortened: as §1

NCI-H661 = tested on: NCI-H661
Procedure, shortened: as §1

NCI-H1437 = tested on: NCI-H1437
Procedure, shortened: as §1

SK-LU-1 = tested on: SK-LU-1
Procedure, shortened: as §1

NCI-H522 = tested on: NCI-H522
Procedure, shortened: as §1

NCI-H2087 = tested on: NCI-H2087
Procedure, shortened: as §1

NCI-H1993 = tested on: NCI-H1993
Procedure, shortened: as §1

Cc1sc2c(c1C)C(c1ccc(Cl)cc1)=N[C@@H](CC(=O)OC(C)(C)C)c1nnc(C)n1-2 [JQ1] + O=C(CCCCCCC(=O)Nc1ccccc1)NO [Vorinostat] (partner 1 µM)
relative viability (NCI-H1355; first compound 0.04 µM): 0.663
relative viability (NCI-H1355; first compound 0.1265 µM): 0.712
relative viability (NCI-H1355; first compound 0.4 µM): 0.541
relative viability (NCI-H1355; first compound 1.265 µM): 0.401
relative viability (NCI-H1355; first compound 4 µM): 0.281
relative viability (NCI-H2170; first compound 0.04 µM): 0.866
relative viability (NCI-H2170; first compound 0.1265 µM): 0.609
relative viability (NCI-H2170; first compound 0.4 µM): 0.513
relative viability (NCI-H2170; first compound 1.265 µM): 0.472
relative viability (NCI-H2170; first compound 4 µM): 0.243
relative viability (NCI-H2009; first compound 0.04 µM): 0.701
relative viability (NCI-H2009; first compound 0.1265 µM): 0.444
relative viability (NCI-H2009; first compound 0.4 µM): 0.429
relative viability (NCI-H2009; first compound 1.265 µM): 0.264
relative viability (NCI-H2009; first compound 4 µM): 0.201
relative viability (NCI-H1734; first compound 0.04 µM): 0.802
relative viability (NCI-H1734; first compound 0.1265 µM): 0.665
relative viability (NCI-H1734; first compound 0.4 µM): 0.712
relative viability (NCI-H1734; first compound 1.265 µM): 0.334
relative viability (NCI-H1734; first compound 4 µM): 0.358
relative viability (LOU-NH91; first compound 0.04 µM): 0.912
relative viability (LOU-NH91; first compound 0.1265 µM): 0.718
relative viability (LOU-NH91; first compound 0.4 µM): 0.442
relative viability (LOU-NH91; first compound 1.265 µM): 0.388
relative viability (LOU-NH91; first compound 4 µM): 0.402
relative viability (NCI-H2405; first compound 0.04 µM): 1.03
relative viability (NCI-H2405; first compound 0.4 µM): 0.79
relative viability (NCI-H2405; first compound 1.265 µM): 0.413
relative viability (NCI-H2405; first compound 4 µM): 0.276
relative viability (NCI-H1395; first compound 0.04 µM): 0.662
relative viability (NCI-H1395; first compound 0.1265 µM): 0.619
relative viability (NCI-H1395; first compound 0.4 µM): 0.694
relative viability (NCI-H1395; first compound 1.265 µM): 0.479
relative viability (NCI-H1395; first compound 4 µM): 0.473
relative viability (NCI-H647; first compound 0.04 µM): 0.615
relative viability (NCI-H647; first compound 0.1265 µM): 0.373
relative viability (NCI-H647; first compound 0.4 µM): 0.406
relative viability (NCI-H647; first compound 1.265 µM): 0.0648
relative viability (NCI-H647; first compound 4 µM): 0.062
relative viability (HCC-827; first compound 0.04 µM): 0.95
relative viability (HCC-827; first compound 0.1265 µM): 0.464
relative viability (HCC-827; first compound 1.265 µM): 0.904
relative viability (BEN; first compound 0.04 µM): 0.503
relative viability (BEN; first compound 0.1265 µM): 0.545
relative viability (BEN; first compound 0.4 µM): 0.494
relative viability (BEN; first compound 1.265 µM): 0.456
relative viability (BEN; first compound 4 µM): 0.351
relative viability (HCC-366; first compound 0.04 µM): 0.409
relative viability (HCC-366; first compound 0.4 µM): 0.138
relative viability (HCC-366; first compound 1.265 µM): 0.0461
relative viability (HCC-366; first compound 4 µM): 0.042
relative viability (EKVX; first compound 0.04 µM): 0.789
relative viability (EKVX; first compound 0.4 µM): 0.739
relative viability (EKVX; first compound 1.265 µM): 0.466
relative viability (EKVX; first compound 4 µM): 0.496
relative viability (NCI-H2342; first compound 0.04 µM): 0.722
relative viability (NCI-H2342; first compound 0.1265 µM): 0.592
relative viability (NCI-H2342; first compound 0.4 µM): 0.87
relative viability (NCI-H2342; first compound 1.265 µM): 0.73
relative viability (NCI-H2342; first compound 4 µM): 0.714
relative viability (HARA; first compound 0.04 µM): 0.464
relative viability (HARA; first compound 0.1265 µM): 0.514
relative viability (HARA; first compound 0.4 µM): 0.396
relative viability (HARA; first compound 1.265 µM): 0.347
relative viability (HARA; first compound 4 µM): 0.301
relative viability (SK-MES-1; first compound 0.04 µM): 1.1
relative viability (SK-MES-1; first compound 0.1265 µM): 0.813
relative viability (SK-MES-1; first compound 0.4 µM): 0.464
relative viability (SK-MES-1; first compound 1.265 µM): 0.32
relative viability (SK-MES-1; first compound 4 µM): 0.273
relative viability (NCI-H661; first compound 0.04 µM): 0.766
relative viability (NCI-H661; first compound 0.1265 µM): 0.809
relative viability (NCI-H661; first compound 0.4 µM): 0.677
relative viability (NCI-H661; first compound 1.265 µM): 0.493
relative viability (NCI-H661; first compound 4 µM): 0.456
relative viability (NCI-H1437; first compound 0.04 µM): 0.816
relative viability (NCI-H1437; first compound 0.1265 µM): 0.736
relative viability (NCI-H1437; first compound 0.4 µM): 0.686
relative viability (NCI-H1437; first compound 1.265 µM): 0.395
relative viability (NCI-H1437; first compound 4 µM): 0.34
relative viability (SK-LU-1; first compound 0.04 µM): 0.797
relative viability (SK-LU-1; first compound 0.1265 µM): 0.688
relative viability (SK-LU-1; first compound 0.4 µM): 0.676
relative viability (SK-LU-1; first compound 1.265 µM): 0.477
relative viability (SK-LU-1; first compound 4 µM): 0.289
relative viability (NCI-H522; first compound 0.04 µM): 0.984
relative viability (NCI-H522; first compound 0.1265 µM): 0.71
relative viability (NCI-H522; first compound 0.4 µM): 0.737
relative viability (NCI-H522; first compound 1.265 µM): 0.497
relative viability (NCI-H522; first compound 4 µM): 0.368
relative viability (NCI-H2087; first compound 0.04 µM): 0.63
relative viability (NCI-H2087; first compound 0.1265 µM): 0.38
relative viability (NCI-H2087; first compound 0.4 µM): 0.668
relative viability (NCI-H2087; first compound 1.265 µM): 0.316
relative viability (NCI-H2087; first compound 4 µM): 0.127
relative viability (NCI-H1993; first compound 0.04 µM): 0.851
relative viability (NCI-H1993; first compound 0.1265 µM): 0.785
relative viability (NCI-H1993; first compound 0.4 µM): 0.613
relative viability (NCI-H1993; first compound 1.265 µM): 0.388
relative viability (NCI-H1993; first compound 4 µM): 0.362
